± gives the expanded uncertainty stated by the source.
Assay: activity coefficient (dimensionless); of the first substance listed, at infinite dilution; xn = mol fraction of the nth substance listed
Conditions: Liquid, x1 = 0

Row | SMILES | activity coefficient (303.15 K, dilutor) | activity coefficient (313.15 K, dilutor) | activity coefficient (323.15 K, dilutor) | activity coefficient (333.15 K, dilutor) | activity coefficient (303.15 K, Chromatography) | activity coefficient (313.15 K, Chromatography) | activity coefficient (323.15 K, Chromatography) | activity coefficient (333.15 K, Chromatography)
1 | C1CCCC1 [cyclopentane] + CCCC[N+]1(C)CCCC1.O=S(=O)([N-]S(=O)(=O)C(F)(F)F)C(F)(F)F | 6.14 ± 0.31 | 5.7 ± 0.29 | 5.41 ± 0.27 | 5.12 ± 0.26 | – | – | – | –
2 | CCCCC [pentane] + CCCCCC[n+]1ccn(C)c1.O=S(=O)([N-]S(=O)(=O)C(F)(F)F)C(F)(F)F | 5.93 ± 0.3 | 5.67 ± 0.28 | 5.48 ± 0.27 | 5.27 ± 0.26 | 5.95 ± 0.27 | 5.76 ± 0.26 | 5.65 ± 0.26 | 5.52 ± 0.25
3 | C=CCCCCCC [oct-1-ene] + CCCCCC[n+]1ccn(C)c1.O=S(=O)([N-]S(=O)(=O)C(F)(F)F)C(F)(F)F | 8.28 ± 0.41 | 8.08 ± 0.4 | 7.92 ± 0.4 | 7.77 ± 0.39 | 8.81 ± 0.4 | 8.47 ± 0.39 | 8.18 ± 0.38 | 7.9 ± 0.36
4 | CCC(C)=O [butanone] + CCCC[N+]1(C)CCCC1.O=S(=O)([N-]S(=O)(=O)C(F)(F)F)C(F)(F)F | 0.52 ± 0.03 | 0.53 ± 0.03 | 0.55 ± 0.03 | 0.56 ± 0.03 | – | – | – | –
5 | C=CCCC [1-pentene] + CCCCCCCCn1cc[n+](C)c1.O=S(=O)([N-]S(=O)(=O)C(F)(F)F)C(F)(F)F | 2.54 ± 0.13 | 2.53 ± 0.13 | 2.53 ± 0.13 | 2.52 ± 0.13 | 2.52 ± 0.11 | 2.53 ± 0.11 | 2.46 ± 0.11 | 2.45 ± 0.11
6 | Cc1ccccc1 [toluene] + CCCCCC[n+]1ccn(C)c1.O=S(=O)([N-]S(=O)(=O)C(F)(F)F)C(F)(F)F | – | – | – | – | 1.01 ± 0.03 | 1.03 ± 0.03 | 1.05 ± 0.03 | 1.08 ± 0.03
7 | Cc1ccccc1C [1,2-dimethylbenzene] + CCCCCCCCn1cc[n+](C)c1.O=S(=O)([N-]S(=O)(=O)C(F)(F)F)C(F)(F)F | – | – | – | – | 0.98 ± 0.03 | 1.03 ± 0.03 | 1.03 ± 0.03 | 1.05 ± 0.03
8 | CC(C)O [propan-2-ol] + CCCCCC[n+]1ccn(C)c1.O=S(=O)([N-]S(=O)(=O)C(F)(F)F)C(F)(F)F | 1.72 ± 0.09 | – | 1.37 ± 0.07 | 1.23 ± 0.06 | 1.71 ± 0.07 | – | 1.44 ± 0.05 | 1.33 ± 0.05
9 | C1CCCC1 [cyclopentane] + CCCCCC[n+]1ccn(C)c1.O=S(=O)([N-]S(=O)(=O)C(F)(F)F)C(F)(F)F | 3.64 ± 0.18 | 3.48 ± 0.17 | 3.27 ± 0.16 | 3.26 ± 0.16 | – | – | – | –
10 | CCO [ethanol] + CCCCCC[n+]1ccn(C)c1.O=S(=O)([N-]S(=O)(=O)C(F)(F)F)C(F)(F)F | – | – | – | – | 1.6 ± 0.06 | 1.47 ± 0.06 | 1.36 ± 0.05 | 1.27 ± 0.04
11 | CCC(C)=O [butanone] + CCCCCC[n+]1ccn(C)c1.O=S(=O)([N-]S(=O)(=O)C(F)(F)F)C(F)(F)F | – | – | – | – | 0.41 ± 0.03 | 0.42 ± 0.03 | 0.44 ± 0.03 | 0.44 ± 0.03
12 | C=CCCCCC [1-heptene] + CCCCCCCCn1cc[n+](C)c1.O=S(=O)([N-]S(=O)(=O)C(F)(F)F)C(F)(F)F | 4.33 ± 0.22 | 4.26 ± 0.21 | 4.2 ± 0.21 | 4.15 ± 0.21 | 4.29 ± 0.2 | 4.23 ± 0.19 | 4.13 ± 0.19 | 4.13 ± 0.19
13 | O [water] + CCCCCCCCn1cc[n+](C)c1.O=S(=O)([N-]S(=O)(=O)C(F)(F)F)C(F)(F)F | 3.76 ± 0.19 | 3.51 ± 0.18 | 3.29 ± 0.16 | – | 3.89 ± 0.18 | 3.52 ± 0.16 | 3.03 ± 0.14 | 2.58 ± 0.12
14 | C=CCCCCCC [oct-1-ene] + CCCC[N+]1(C)CCCC1.O=S(=O)([N-]S(=O)(=O)C(F)(F)F)C(F)(F)F | 15 ± 0.8 | 13.9 ± 0.7 | 13.3 ± 0.7 | 13.2 ± 0.7 | – | – | – | –
15 | Cc1ccccc1 [toluene] + CCCCCCCCn1cc[n+](C)c1.O=S(=O)([N-]S(=O)(=O)C(F)(F)F)C(F)(F)F | – | – | – | – | 0.82 ± 0.03 | 0.83 ± 0.03 | 0.85 ± 0.03 | 0.85 ± 0.03
16 | C=CCCC [1-pentene] + CCCC[N+]1(C)CCCC1.O=S(=O)([N-]S(=O)(=O)C(F)(F)F)C(F)(F)F | 4.95 ± 0.25 | 4.91 ± 0.25 | 4.81 ± 0.24 | 4.8 ± 0.24 | – | – | – | –

Reference: the NIST ThermoML archive (doi:10.1016/j.jct.2005.04.010)
